Laboratory results as given in patent US20250275540A1, “USE OF PROTOPORPHYRINOGEN OXIDASE” (BEIJING DABEINONG BIOTECHNOLOGY CO., LTD., priority 2022, published 2025).

System: transgenic soybean plants
Assay: Detection of the herbicide tolerance of the transgenic soybean plants
Format: in vivo
Details: for The grade of pesticide damage/plant: 0 / The grade of pesticide damage/plant: 1 / The grade of pesticide damage/plant: 2 / The grade of pesticide damage/plant: 3: 7 DAT
[1] = genotype Control vector, 120 g ai/ha
[2] = genotype Control vector, 240 g ai/ha
[3] = genotype PPO-AP-01, 120 g ai/ha
[4] = genotype PPO-AP-01, 240 g ai/ha
[5] = genotype PPO-EC-01, 120 g ai/ha
[6] = genotype PPO-EC-01, 240 g ai/ha

SMILES: C#CCN1C(=O)COc2cc(F)c(N3C(=O)C4=C(CCCC4)C3=O)cc21 [flumioxazin, 2-[7-fluoro-3,4-dihydro-3-oxo-4-(2-propynyl)-2H-1,4-benzoxazin-6-yl]-4,5,6,7-tetrahydro-1H-isoindole-1,3(2H)-dione]
- The grade of pesticide damage/plant: 0 (genotype CK, 120 g ai/ha): 0 plant
- The grade of pesticide damage/plant: 1 (genotype CK, 120 g ai/ha): 0 plant
- The grade of pesticide damage/plant: 2 (genotype CK, 120 g ai/ha): 0 plant
- The grade of pesticide damage/plant: 3 (genotype CK, 120 g ai/ha): 16 plant
- The grade of pesticide damage/plant: 0 (genotype CK, 240 g ai/ha): 0 plant
- The grade of pesticide damage/plant: 1 (genotype CK, 240 g ai/ha): 0 plant
- The grade of pesticide damage/plant: 2 (genotype CK, 240 g ai/ha): 0 plant
- The grade of pesticide damage/plant: 3 (genotype CK, 240 g ai/ha): 16 plant
- The grade of pesticide damage/plant: 0 [1]: 0 plant
- The grade of pesticide damage/plant: 1 [1]: 0 plant
- The grade of pesticide damage/plant: 2 [1]: 0 plant
- The grade of pesticide damage/plant: 3 [1]: 16 plant
- The grade of pesticide damage/plant: 0 [2]: 0 plant
- The grade of pesticide damage/plant: 1 [2]: 0 plant
- The grade of pesticide damage/plant: 2 [2]: 0 plant
- The grade of pesticide damage/plant: 3 [2]: 16 plant
- The grade of pesticide damage/plant: 0 [3]: 0 plant
- The grade of pesticide damage/plant: 1 [3]: 0 plant
- The grade of pesticide damage/plant: 2 [3]: 0 plant
- The grade of pesticide damage/plant: 3 [3]: 16 plant
- The grade of pesticide damage/plant: 0 [4]: 0 plant
- The grade of pesticide damage/plant: 1 [4]: 0 plant
- The grade of pesticide damage/plant: 2 [4]: 0 plant
- The grade of pesticide damage/plant: 3 [4]: 16 plant
- tolerance to the herbicide (in words) (genotype PPO-AP-01, at different concentrations): no flumioxazin tolerance
- The grade of pesticide damage/plant: 0 [5]: 16 plant
- The grade of pesticide damage/plant: 1 [5]: 0 plant
- The grade of pesticide damage/plant: 2 [5]: 0 plant
- The grade of pesticide damage/plant: 3 [5]: 0 plant
- The grade of pesticide damage/plant: 0 [6]: 15 plant
- The grade of pesticide damage/plant: 1 [6]: 1 plant
- The grade of pesticide damage/plant: 2 [6]: 0 plant
- The grade of pesticide damage/plant: 3 [6]: 0 plant
- The grade of pesticide damage/plant: 0 (genotype PPOA-01, 120 g ai/ha): 16 plant
- The grade of pesticide damage/plant: 1 (genotype PPOA-01, 120 g ai/ha): 0 plant
- The grade of pesticide damage/plant: 2 (genotype PPOA-01, 120 g ai/ha): 0 plant
- The grade of pesticide damage/plant: 3 (genotype PPOA-01, 120 g ai/ha): 0 plant
- The grade of pesticide damage/plant: 0 (genotype PPOA-01, 240 g ai/ha): 14 plant
- The grade of pesticide damage/plant: 1 (genotype PPOA-01, 240 g ai/ha): 2 plant
- The grade of pesticide damage/plant: 2 (genotype PPOA-01, 240 g ai/ha): 0 plant
- The grade of pesticide damage/plant: 3 (genotype PPOA-01, 240 g ai/ha): 0 plant
- The grade of pesticide damage/plant: 0 (genotype PPOB-01, 120 g ai/ha): 16 plant
- The grade of pesticide damage/plant: 1 (genotype PPOB-01, 120 g ai/ha): 0 plant
- The grade of pesticide damage/plant: 2 (genotype PPOB-01, 120 g ai/ha): 0 plant
- The grade of pesticide damage/plant: 3 (genotype PPOB-01, 120 g ai/ha): 0 plant
- The grade of pesticide damage/plant: 0 (genotype PPOB-01, 240 g ai/ha): 15 plant
- The grade of pesticide damage/plant: 1 (genotype PPOB-01, 240 g ai/ha): 1 plant
- The grade of pesticide damage/plant: 2 (genotype PPOB-01, 240 g ai/ha): 0 plant
- The grade of pesticide damage/plant: 3 (genotype PPOB-01, 240 g ai/ha): 0 plant
- The grade of pesticide damage/plant: 0 (genotype PPOC-01, 120 g ai/ha): 16 plant
- The grade of pesticide damage/plant: 1 (genotype PPOC-01, 120 g ai/ha): 0 plant
- The grade of pesticide damage/plant: 2 (genotype PPOC-01, 120 g ai/ha): 0 plant
- The grade of pesticide damage/plant: 3 (genotype PPOC-01, 120 g ai/ha): 0 plant
- The grade of pesticide damage/plant: 0 (genotype PPOC-01, 240 g ai/ha): 16 plant
- The grade of pesticide damage/plant: 1 (genotype PPOC-01, 240 g ai/ha): 0 plant
- The grade of pesticide damage/plant: 2 (genotype PPOC-01, 240 g ai/ha): 0 plant
- The grade of pesticide damage/plant: 3 (genotype PPOC-01, 240 g ai/ha): 0 plant
- The grade of pesticide damage/plant: 0 (genotype PPOD-01, 120 g ai/ha): 16 plant
- The grade of pesticide damage/plant: 1 (genotype PPOD-01, 120 g ai/ha): 0 plant
- The grade of pesticide damage/plant: 2 (genotype PPOD-01, 120 g ai/ha): 0 plant
- The grade of pesticide damage/plant: 3 (genotype PPOD-01, 120 g ai/ha): 0 plant
- The grade of pesticide damage/plant: 0 (genotype PPOD-01, 240 g ai/ha): 16 plant
- The grade of pesticide damage/plant: 1 (genotype PPOD-01, 240 g ai/ha): 0 plant
- The grade of pesticide damage/plant: 2 (genotype PPOD-01, 240 g ai/ha): 0 plant
- The grade of pesticide damage/plant: 3 (genotype PPOD-01, 240 g ai/ha): 0 plant
- The grade of pesticide damage/plant: 0 (genotype PPOE-01, 120 g ai/ha): 16 plant
- The grade of pesticide damage/plant: 1 (genotype PPOE-01, 120 g ai/ha): 0 plant
- The grade of pesticide damage/plant: 2 (genotype PPOE-01, 120 g ai/ha): 0 plant
- The grade of pesticide damage/plant: 3 (genotype PPOE-01, 120 g ai/ha): 0 plant
- The grade of pesticide damage/plant: 0 (genotype PPOE-01, 240 g ai/ha): 15 plant
- The grade of pesticide damage/plant: 1 (genotype PPOE-01, 240 g ai/ha): 1 plant
- The grade of pesticide damage/plant: 2 (genotype PPOE-01, 240 g ai/ha): 0 plant
- The grade of pesticide damage/plant: 3 (genotype PPOE-01, 240 g ai/ha): 0 plant
- The grade of pesticide damage/plant: 0 (genotype PPOF-01, 120 g ai/ha): 16 plant
- The grade of pesticide damage/plant: 1 (genotype PPOF-01, 120 g ai/ha): 0 plant
- The grade of pesticide damage/plant: 2 (genotype PPOF-01, 120 g ai/ha): 0 plant
- The grade of pesticide damage/plant: 3 (genotype PPOF-01, 120 g ai/ha): 0 plant
- The grade of pesticide damage/plant: 0 (genotype PPOF-01, 240 g ai/ha): 14 plant
- The grade of pesticide damage/plant: 1 (genotype PPOF-01, 240 g ai/ha): 2 plant
- The grade of pesticide damage/plant: 2 (genotype PPOF-01, 240 g ai/ha): 0 plant
- The grade of pesticide damage/plant: 3 (genotype PPOF-01, 240 g ai/ha): 0 plant
- tolerance to the herbicide (in words) (genotypes PPOA-01 to PPOF-01 and PPO-EC-01, at different concentrations): high-resistant tolerance
